Earlier results on one substance are cited in patent US6440950B1, “Selective and non-invasive visualization or treatment of vasculature” (The Johns Hopkins University, priority 1994, dated 2002).

The conditions of data set [1]: in vivo.
The conditions of data set [2]: in a number of species.
The conditions of data set [3]: used intraperitonially in a few patients.

With “aluminum phthalocyanine tetrasulfonate [AlPcS4]”, the water solubility entry is listed as “water soluble”. For the same substance, the “time to removal from the blood” value in data set [1] was no more than 24 h. For the same substance, the toxicity result in data set [2] is “non-toxic”. The side effects entry in data set [3] is listed as “no side effects have been reported”.
